From US6362219B1 (Council of Scientific and Industrial Research, priority 1999, dated 2002)
Values joined by “and” are separate entries in the source; they are usually repeats but may differ in a detail not shown here. Identical values can stand only once. Like-named read-outs stand apart in the source and are kept apart here.

Tests used:
[1] = test system: multi-drug resistant P. yoelii nigeriensis; experiment: Blood schizontocidal activity in Swiss mice by rectal route; type: in vivo, Plasmodium yoelii nigeriensis; settings: for Cure-rate Day 30 (%) / Parasitaemia % Day 5 / Parasitaemia % Day 7: in oil; for Parasitaemia % Day 5 / Parasitaemia % Day 7: 8 mice
Experimental: Test Parasite: Multi-drug resistant Plasmodium yoeli nigerienes (Rodent malaria strian). The P. yoeli nigerienses is a multi-drug resistant strain which is resistant to high oral doses of chloroquine (128 mg/kg×4), amodiaquine (128 mg/kg×4), meperaine (128 mg/kg×4), mefloquine (128 mg/kg×4), quinine (400 mg/kg×4) and halofantrine (32 mg/kg×4). […]. […] For higher doses (15 and 20 mg/kg) the drug was given in divided doses by rectal route. The tail blood smears of the mice were examined periodically after Giemsa staining upto 30 days post-infections.
Drug is dissolved in sterile ground nut oil for adminisitration.

[2] = test system: multi-drug resistant strain of P. yoelii nigeriensis; experiment: Blood schizontocidal activity in Swiss mice and baby mice by intramuscular route; type: in vivo, Plasmodium yoelii nigeriensis; settings: day 30
Experimental: Test Parasite: Multi-drug resistant Plasmodium yoeli nigerienes (Rodent malaria strian). The P. yoeli nigerienses is a multi-drug resistant strain which is resistant to high oral doses of chloroquine (128 mg/kg×4), amodiaquine (128 mg/kg×4), meperaine (128 mg/kg×4), mefloquine (128 mg/kg×4), quinine (400 mg/kg×4) and halofantrine (32 mg/kg×4). […]. […] The tail blood smears of the mice were examined periodically after Giemsa staining upto 30 days post-infection.
Drug treatment was started on day 0 (ie day of infection). Mice showing negative blood slide upto day 30 were considered as cured.

[3] = test system: multi-drug resistant P. yoelii nigeriensis; experiment: Blood schizontocidal activity in Swiss mice by oral route; type: in vivo, Plasmodium yoelii nigeriensis; settings: oral in oil, 30 mg/kg × 5, mice 25 ± 1 g
Experimental: Test Parasite: Multi-drug resistant Plasmodium yoeli nigerienes (Rodent malaria strian). The P. yoeli nigerienses is a multi-drug resistant strain which is resistant to high oral doses of chloroquine (128 mg/kg×4), amodiaquine (128 mg/kg×4), meperaine (128 mg/kg×4), mefloquine (128 mg/kg×4), quinine (400 mg/kg×4) and halofantrine (32 mg/kg×4). […].

Safety in healthy mice = type: in vivo; settings: 30 mg/kg DHA × 5, 20 ± 1 g mice
[4] = oral tablets, 60 mg dose, cited from earlier work
[5] = oral artesunate; 95/Cl 387-9410, range 79-1394; cited from earlier work
[6] = cited from earlier work
[7] = cited from earlier work; remark: listed apart in the source
[8] = cited from earlier work; remark: listed apart in the source
[9] = cited from earlier work; for maximum plasma concentration by im route: in ng/mL
P. falcipurum = settings: rectal suppository; cited from earlier work
malaria [10] = settings: cited from earlier work
malaria [11] = settings: cited from earlier work; remark: listed apart in the source
[12] = rabbit, in vivo; cited from earlier work
[13] = dog, in vivo; cited from earlier work
[14] = aqueous solution at pH 7-8; cited from earlier work
[15] = 5 mg/kg × 7, Swiss mice 20 ± 1 g
[16] = 20 mg/kg × 7, Swiss mice 20 ± 1 g
[17] = following oral artesunate administration

C[C@H]1[C@@H](O)O[C@@H]2O[C@@]3(C)CC[C@H]4[C@H](C)CC[C@@H]1[C@@]24OO3 [DHA, Dihydroartemisinin]
number of mice negative (-ve) Day 5 ([1]; 5 mg/kg × 7, of 8 mice): (8) 4-ve | number of mice negative (-ve) Day 7 ([1]; 5 mg/kg × 7, of 8 mice): (8) 4-ve | Cure-rate Day 30 (%) [1, 15]: 25% | Parasitaemia % Day 5 [1, 15]: 0.83 ± 1.31% | Parasitaemia % Day 7 [1, 15]: 1.12 ± 1.55% | Cure-rate Day 30 (%) [1, 16]: 87% | Parasitaemia % Day 5 [1, 16]: 0.0% | Parasitaemia % Day 7 [1, 16]: 0.0% | Cure rate (%) ([2]; Expt. I, IM in oil, 5 mg/kg × 5, mice 20 ± 1 g): 100% (8/8) | Cure rate (%) ([2]; Expt. II, im in oil, 5 mg/kg × 5, mice 20 ± 1 g): 100% (8/8) | Cure rate (%) ([2]; Expt. II, im in oil, 10 mg/kg × 5, mice 20 ± 1 g): 100% (8/8) | Cure rate (%) ([2]; Expt. III, im in oil, 5 mg/kg × 5, baby mice 12 ± 1 g): 100% (9/9) | Cure rate (%) Day 30 [3]: 100% | Safety in Healthy mice (Safety in healthy mice): Safe 8/8 | peak plasma levels of dihydroartemisinin ([4]; four subjects): 0.26 to 0.71 µg/mL | tolerability ([4]; six cases): well tolerated in 2 subjects while 4 subjects experienced mild headache, nausea or vomiting | complete excretion by [4]: ≤ 6 h | elimination half-life [4]: 42.6 to 87 min | peak plasma concentration of DHA [5]: 664 ng of DHA/ml | DHA activity AUC ([6]; im route): 3445 n Mlo l^−1 h | duration of activity due to DHA ([6]; im route): over 30 h | duration of effective level ([6]; oral dose): ≤ 10 h | Elimination half life ([7]; oral, rats): 296 ± 43.8 min | area under plasma concentration time curve ([7]; oral, rats): 9615±56 ngh ml^−1 | DHA level compared to that of artesunate [8, 17]: 5 fold | maximum plasma level [8, 17]: 0.57 ± 0.18 µg/mL | maximum plasma concentration by im route ([9]; rats): 1579±443 | Absorption 0-8 h ([9]; rats, single IM dose): 85.4±12.1% and 85.4% | Area under plasma concentration ([9]; rats, single IM dose): 2720 ng·h/mL | Elimination half life ([9]; rats, single IM dose): 266 ± 16.2 min | Mean absorption time ([9]; rats, single IM dose): 0.21 h | Time of maximum plasma Concentration ([9]; rats, single IM dose): 17.5 min | maximum plasma concentration ([9]; rats, single IM dose): 1579 ng/mL

CCO[C@H]1O[C@@H]2O[C@@]3(C)CC[C@H]4[C@H](C)CC[C@@H]([C@H]1C)[C@@]24OO3 [arteether]
Elimination half life ([7]; oral, rats): 107 ± 28.2 min | area under plasma concentration time curve ([7]; oral, rats): 298±68 ngh ml^−1 | maximum plasma concentration ([7]; oral, rats): 324 ± 10 ng/mL | maximum plasma concentration by im route ([9]; rats): 160±12.4 | Distribution half life ([9]; rats, single IM dose): 20.4 ± 4.2 min | Mean absorption time ([9]; rats, single IM dose): 0.25 ± 0.06 h | Time of maximum plasma Concentration ([9]; rats, single IM dose): 41.4 ± 14.7 min | maximum plasma concentration ([9]; rats, single IM dose): 160.7 ± 12.4 ng/mL | Absorption 0-8 h ([9]; rats, single IM dose, listed as AE): 34.0±9.6%

CO[C@H]1O[C@@H]2O[C@@]3(C)CC[C@H]4[C@H](C)CC[C@@H]([C@H]1C)[C@@]24OO3 [artemether]
Elimination half life ([7]; oral, rats): 122 ± 10.8 min | area under plasma concentration time curve ([7]; oral, rats): 306±52 ngh ml^−1 | maximum plasma concentration ([7]; oral, rats): 381 ± 113 ng/mL | maximum plasma concentration by im route ([9]; rats): 692±234 | Absorption 0-8 h ([9]; rats, single IM dose): 54.2±25.9% and 54.3% | Area under plasma concentration ([9]; rats, single IM dose): 1010 ng·h/mL | Distribution half life ([9]; rats, single IM dose): 13.8 min | Elimination half life ([9]; rats, single IM dose): 107 ± 48 min | Mean absorption time ([9]; rats, single IM dose): 0.14 h | Time of maximum plasma Concentration ([9]; rats, single IM dose): 28.8 min | maximum plasma concentration ([9]; rats, single IM dose): 692 ng/mL

C[C@@H]1CC[C@H]2[C@@H](C)C(=O)O[C@@H]3O[C@@]4(C)CC[C@@H]1[C@]32OO4 [artemisinin]
recovery from coma (P. falcipurum): 24 (18-30) h | cure rate (malaria [10]; high doses upto 5.0 g): 55%

C[C@H]1[C@H](OC(=O)CCC(=O)O)O[C@@H]2O[C@@]3(C)CC[C@H]4[C@H](C)CC[C@@H]1[C@@]24OO3 [artesunate]
times more potent than artemisinin (malaria [11]): 3.2 times | cure rate (malaria [10]; upto 750 mg): 70-90% | Elimination half life ([7]; rat, in vivo, po): 80.4 ± 1560 min | area under plasma concentration time curve ([7]; rat, in vivo, po): 217±34 ngh ml^−1 | maximum plasma concentration ([7]; rat, in vivo, po): 208 ± 25 ng/mL | maximum plasma level ([8]; in vivo, po): 0.12 ± 0.11 µg/mL | elimination half-life [12]: 2 to 4 min | elimination half-life [13]: 27 min | Distribution half life ([9]; rat, in vivo, im): 9 ± 3.6 min | Elimination half life ([9]; rat, in vivo, im): 32.4 ± 8.4 min | Time of maximum plasma Concentration ([9]; rat, in vivo): 15.0 ± 4.1 min

C[C@H]1[C@H](OC(=O)CCC(=O)[O-])O[C@@H]2O[C@@]3(C)CC[C@H]4[C@H](C)CC[C@@H]1[C@@]24OO3.[Na+] [sodium artesunate]
time of hydrolysis to DHA [14]: ≤ 1 h
